Test results from patent publication US8586548B2, “NAP alpha-aminoisobutyric acid analog with neuroprotective activity” (Ramot at Tel-Aviv University, Ltd., priority 2009, dated 2013).
Read-outs that look alike come from different tables or passages of the source.

What was measured:
[1] = intranasal administration to rats, dogs or humans; cited from earlier work
[2] = tested on: fibroblast-like cells and neuronal-like cells; settings: cited from earlier work
[3] = tested on: rat cerebral cortical neurons; settings: cited from earlier work
[4] = target: VQIVYK (SEQ ID NO:10) peptide derived from tau (Homo sapiens, UniProt P10636); assay: In vitro tau-like VQIVYK aggregation assay (Thioflavin S); format: biochemical
Description: In the presence of polyglutamic acid (or heparin), VQIVYK (SEQ ID NO:10) aggregates which can be further detected by Thioflavin S (excitation 485 nm and emission 535) with emission intensity greatly increasing.
First, different concentrations of polyglutamic acid (0, 100 μM, 250 μM, and 400 μM) VQIVYK (SEQ ID NO:10) and either […] (NH4Ac) 50 mM pH 6.5 or MOPS 20 mM pH 6.5 and Thioflavin S 5 μM were mixed together and incubated at room temperature. The extent of aggregation was read at excitation 485 nm and emission 535 nm using the infinite 200 system with the Magellan program.
The peptides were added at a range of concentrations (10^−17-10^−9 M) and the extent of aggregation of 100 μM VQIVYK (SEQ ID NO:10) was tested in the presence of polyglutamate 250 μM in MOPS 20 μM, pH 6.5 for 7 days.
In order to avoid reading self peptide aggregation as VQIVYK aggregation, for each peptide concentration, the fluorescence of the peptide solution without VQIVYK was subtracted from the fluorescence of each peptide concentration containing VQIVYK.

[5] = tested on: newborn apolipoprotein E deficient mice; settings: newborn apolipoprotein E deficient mice subjected to hypoxia; cited from earlier work
[6] = tested on: beta amyloid peptide (1-42) toxicity; settings: cited from earlier work
[7] = intranasal administration in the rat; cited from earlier work
[8] = tested on: primary hippocampal neurons from presenilin 1 (PSI) mutant knock-in mice; settings: pretreatment; cited from earlier work
[9] = tested on: beta amyloid peptide 25-35 neurotoxicity; settings: cited from earlier work

Molecule: Asn-Ala-Pro-Val-Ser-Ile-Pro-Gln [NAP]
- plasma levels [1]: measurable plasma levels
- protection against oxidative stress ([2]; fibroblast-like cells): did not protect fibroblast-like cells
- protection against oxidative stress ([2]; neuronal-like cells): did protect neuronal-like cells
- protection against beta amyloid (25-35) ([3]; neuronal-enriched cultures): protected against beta amyloid (25-35)
- protection against beta amyloid (25-35) toxicity ([3]; neurons seeded on a bed of astrocytes): protect against beta amyloid (amino acids 25-35) toxicity
- inhibition of tau aggregation at 10^−13M ([4]; 100 μM VQIVYK, polyglutamate 250 μM, MOPS pH 6.5, 7 days, FIG. 4, p<0.0005 vs. control): the effect of NAP seems to diminish
- prevention of tau aggregation (overall) ([4]; peptides at 10^−17-10^−9 M): effective for preventing tau aggregation
- neurodevelopment [5]: enhances neurodevelopment
- protection against beta amyloid peptide (1-42) toxicity [6]: protection against the toxic beta amyloid peptide (1-42)
- appearance in plasma [7]: rapid appearance in plasma

Molecule: SALLRSIPA (synthetic activity-dependent neuroprotective protein (ADNP) activity dependent neurotrophic factor 1 (ADNF-1) active core site, ADNF-9)
- protection of neurons with increased vulnerability to excitotoxicity [8]: protected by pretreatment with ADNF-9

B1: recombinant ADNP: recombinant activity-dependent neuroprotective protein (protein, UniProt Q9H2P0 1-1102, looked up)
Activity-dependent …: MFQLPVNNLGSLRKARKTVKKILSDIGLEYCKEHIEDFKQFEPNDFYLKNTTWEDVGLWDPSLTKNQDYRTKPFCCSACPFSSKFFSAYKSHFRNVHSEDFENRILLNCPYCTFNADKKTLETHIKIFHAPNASAPSSSLSTFKDKNKNDGLKPKQADSVEQAVYYCKKCTYRDPLYEIVRKHIYREHFQHVAAPYIAKAGEKSLNGAVPLGSNAREESSIHCKRCLFMPKSYEALVQHVIEDHERIGYQVTAMIGHTNVVVPRSKPLMLIAPKPQDKKSMGLPPRIGSLASGNVRSLPSQQMVNRLSIPKPNLNSTGVNMMSSVHLQQNNYGVKSVGQGYSVGQSMRLGLGGNAPVSIPQQSQSVKQLLPSGNGRSYGLGSEQRSQAPARYSLQSANASSLSSGQLKSPSLSQSQASRVLGQSSSKPAAAATGPPPGNTSSTQKWKICTICNELFPENVYSVHFEKEHKAEKVPAVANYIMKIHNFTSKCLYCNRYLPTDTLLNHMLIHGLSCPYCRSTFNDVEKMAAHMRMVHIDEEMGPKTDSTLSFDLTLQQGSHTNIHLLVTTYNLRDAPAESVAYHAQNNPPVPPKPQPKVQEKADIPVKSSPQAAVPYKKDVGKTLCPLCFSILKGPISDALAHHLRERHQVIQTVHPVEKKLTYKCIHCLGVYTSNMTASTITLHLVHCRGVGKTQNGQDKTNAPSRLNQSPSLAPVKRTYEQMEFPLLKKRKLDDDSDSPSFFEEKPEEPVVLALDPKGHEDDSYEARKSFLTKYFNKQPYPTRREIEKLAASLWLWKSDIASHFSNKRKKCVRDCEKYKPGVLLGFNMKELNKVKHEMDFDAEWLFENHDEKDSRVNASKTADKKLNLGKEDDSSSDSFENLEEESNESGSPFDPVFEVEPKISNDNPEEHVLKVIPEDASESEEKLDQKEDGSKYETIHLTEEPTKLMHNASDSEVDQDDVVEWKDGASPSESGPGSQQVSDFEDNTCEMKPGTWSDESSQSEDARSSKPAAKKKATMQGDREQLKWKNSSYGKVEGFWSKDQSQWKNASENDERLSNPQIEWQNSTIDSEDGEQFDNMTDGVAEPMHGSLAGVKLSSQQA
- neuroprotection in vitro against severe oxidative stress and beta amyloid peptide 25-35 [9]: neuroprotective in vitro
